From patent publication US12043621B2, “Small molecule inhibitors of Interleukin-4” (Trustees of Boston University, priority 2020, dated 2024)
pEC50: −log10 of the molar value. Where two headings read alike, the source gives them in different places.

Legend:
[1] = tested on: HEK-Blue IL-4/IL-13 cells; test: HEK-Blue IL-4/IL-13 control: compounds alone without IL-4 (SEAP); assay type: cell-based; settings: cells with 100 μM compound, no IL-4
Experimental: […] HEK-Blue IL-4/IL-13 cells were trypsinized, spun down, and resuspended in DMEM with 10% heat-inactivated FBS, and 100 U/mL-100 μg/mL Pen-Strep at a concentration of 3.125E5/mL. 160 μL of the cell suspension was added to each well of a 96 well plate, avoiding the edges of the plate and equilibrated in an incubator for 1 hour. After 2 hours, 40 μL of the small molecule/IL-4 solution was added to each well. Each measurement was performed in triplicate. Cells were incubated for 20 hours at 37° C./5% CO2. Quanti-Blue was prepared according to manufacture and 160 μL added to each well of a 96 well plate, avoiding edges. 40 μL of cell supernatant was added to each well and then incubated for 3 hours at 37° C. The optical density was then read at 650 nm with a Molecular Devices SpectraMax M5 Microplate Reader. Data was plotted and analyzed in GraphPad Prism 8.

IL-4 = biological target: T1, IL-4 (Homo sapiens, UniProt P05112); test: HEK-Blue IL-4/IL-13 cell-based reporter (SEAP) IL-4 inhibition assay; settings: for Activity at 1 uM / Activity at 10 uM: percent activity in HEK-Blue IL-4/IL-13, in %; for reduction of IL-4 activity: at 50 μM, normalized to IL-4 with vehicle
T1 construct: purchased Acros Biosystems IL4-H4218; host or cells: HEK-293
T1 sequence (P05112 25-153): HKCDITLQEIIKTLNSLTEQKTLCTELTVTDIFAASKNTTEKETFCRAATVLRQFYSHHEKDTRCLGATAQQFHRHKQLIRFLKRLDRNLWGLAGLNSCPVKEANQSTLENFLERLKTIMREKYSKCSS
Experimental: HEK-Blue IL-4/IL-13 cells were purchased from Invivogen and maintained in DMEM complete with 10% fetal bovine serum, 10 μg/ml of blasticidin and 100 μg/ml of Zeocin, 100 μg/mL Normocin, and 100 U/mL-100 μg/mL Pen-Strep. Cells used for assays were between passages 12 and 18. […] HEK-Blue IL-4/IL-13 cells were trypsinized, spun down, and resuspended in DMEM with 10% heat-inactivated FBS, and 100 U/mL-100 μg/mL Pen-Strep at a concentration of 3.125E5/mL. 160 μL of the cell suspension was added to each well of a 96 well plate, avoiding the edges of the plate and equilibrated in an incubator for 1 hour. After 2 hours, 40 μL of the small molecule/IL-4 solution was added to each well. Each measurement performed in quadruplicate. Cells were incubated for 20 hours at 37° C./5% CO2. Quanti-Blue was prepared according to manufacture and 160 μL added to each well of a 96 well plate, avoiding edges. 40 μL of cell supernatant was added to each well and then incubated for 3 hours at 37° C. The optical density was then read at 650 nm with a Molecular Devices SpectraMax M5 Microplate Reader. Data was plotted and analyzed in GraphPad Prism 8.
HEK-Blue IL-4/IL-13 cells were purchased from Invivogen and maintained in DMEM complete with 10% fetal bovine serum, 10 μg/ml of blasticidin and 100 μg/ml of Zeocin, 100 μg/mL Normocin, and 100 U/mL-100 μg/mL Pen-Strep. Cells used for assays were between passages 12 and 18. Prior to screening small molecules, the SEAP production induced by IL-4 alone was tested in the cells (FIG. 13) and determined to be 0.3 ng/mL. The EC25 for the IL-4 induced SEAP production (0.1 ng/mL final well concentration) was chosen for running small molecule inhibition assays.
For screening small molecules, 25 µL of each molecule (FIG. 9) in DMEM with 4% DMSO was added to 25 μL of 1 ng/ml IL-4 in DMEM and incubated for 2 hours at 37° C. HEK-Blue IL-4/IL-13 cells were trypsinized, spun down, and resuspended in DMEM with 10% heat-inactivated FBS, and 100 U/mL-100 μg/mL Pen-Strep at a concentration of 3.125E5/mL. 160 μL of the cell suspension was added to each well of a 96 well plate, avoiding the edges of the plate and equilibrated in an incubator for 1 hour. After 2 hours, 40 μL of the small molecule/IL-4 solution was added to each well. Each measurement was performed in […]. Cells were incubated for 20 hours at 37° C./5% CO2. Quanti-Blue was prepared according to manufacture and 160 μL added to each well of a 96 well plate, avoiding edges. 40 μL of cell supernatant was added to each well and then incubated for 3 hours at 37° C. The optical density was then read at 650 nm with a Molecular Devices SpectraMax M5 Microplate Reader. Data was plotted and analyzed in GraphPad Prism 8.
HEK-Blue IL-4/IL-13 cells used to screen analogs of compound 52 from ACS Chemical Biology paper (also referred to herein as D9). Assay was run as described in Examples 2 and 3. All compounds were screened at 10 μM, 1 μM, and 250 nM in quadruplicate. The results are depicted in FIGS. 17-21.

>25 other proteins = test: SMM binding signatures versus >25 unrelated proteins; settings: compared to SMM binding signatures for >25 other proteins
Text: [formula] Where SNRi is the SNR value for a given feature, Mdn(SNR) is the median of the SNR values for all features in the subarray, and the MAD(SNR) is the […] absolute deviation of the SNR values for all features in the subarray. Assay positives with an average robust Z score greater than 1.645 (alpha=0.05) on duplicate slides were compared to both a counter screen for the detection antibody and a database representing >25 unique targets screened by SMM against the same chemical library to filter nonspecific binders. DSF

[2] = Example 2, quadruplicate, read-out: EC50 of IL-4 inhibition in HEK-Blue IL-4/IL-13 cells
[3] = Example 3, triplicate, read-out: EC50 of IL-4 inhibition in HEK-Blue IL-4/IL-13 cells

Structure (SMILES)	Activity at 1 uM (IL-4)	Activity at 10 uM (IL-4)	further results
N#Cc1c(-c2ccc(O)c(O)c2)cc(-c2ccc(F)cc2)nc1N [Compound 1, 2-amino-4-(3,4-dihydroxyphenyl)-6-(4-fluorophenyl)-nicotinonitrile]	71.73	2.405	Abs650 [1]: 0.0955 ± 0.0072; pEC50 (IL-4; [2]): 4.34; pEC50 (IL-4; [3]): 4.40; pEC50 (IL-4; Table 3, read-out: EC50): 5.81; reduction of IL-4 activity (IL-4): 88.6%; SMM binding selectivity (>25 other proteins): only bound to IL-4
N#Cc1c(-c2ccc(O)c(O)c2)cc(-c2ccc(F)cc2)nc1N [Compound 2]	64.46	4.2	
N#Cc1c(-c2cc(O)c(O)c(O)c2)cc(-c2ccc(F)cc2)nc1N [Compound 5]	84.76	93.86	
Cc1ccc(-c2cc(-c3ccc(F)cc3)nc(N)c2C#N)o1 [Compound 9]	77.98	66.06	
Cc1ccc(-c2cc(-c3ccc(F)cc3)nc(N)c2C#N)s1 [Compound 11]	69.98	62.48	
N#Cc1c(-c2ccccc2O)cc(-c2ccc(F)cc2)nc1N [Compound 15]	51.3773	1.218	
N#Cc1c(-c2ccc(O)cc2)cc(-c2ccc(F)cc2)nc1N [Compound 17]	99.0184	52.77	
COc1ccc(-c2cc(-c3cccnc3)nc(N)c2C#N)cc1O [Compound 25]			Abs650 [1]: 0.0648 ± 0.0012; pEC50 (IL-4; [2]): 4.66; pEC50 (IL-4; [3]): 5.12; reduction of IL-4 activity (IL-4): 84.3%; SMM binding selectivity (>25 other proteins): only bound to IL-4
COc1ccc(-c2cc(-c3ccc(OC)c(O)c3)c(C#N)c(N)n2)cc1 [Compound 30]	64.45	28.76	pEC50 (IL-4; Table 3, read-out: EC50): 5.41
COc1ccc(-c2cc(-c3ccc(Cl)c(Cl)c3)c(C#N)c(=O)[nH]2)cc1 [Compound 32]	51.3	55.85	
COc1ccc(-c2cc(-c3ccccc3)c(C#N)c(=O)[nH]2)cc1 [Compound 34]	73.09	72.43	
COc1ccc(-c2cc(C3CCCOC3)c(C#N)c(=O)[nH]2)cc1 (stereo not shown) [Compound 36]	71.59	68.36	
COc1ccc(-c2cc(-c3ccc(C)o3)c(C#N)c(=O)[nH]2)cc1 [Compound 37]	89.04	99.52	
COc1ccc(-c2cc(-c3ccc4ccccc4c3)c(C#N)c(=O)[nH]2)cc1 [Compound 41]	62.288	48.23	
COc1ccc(-c2cc(-c3ccccc3O)c(C#N)c(=O)[nH]2)cc1 [Compound 42]	33.675	−0.3167	
COc1ccc(-c2cc(-c3cccc(O)c3)c(C#N)c(=O)[nH]2)cc1 [Compound 43]	112.2	35.73	
COc1ccc(-c2cc(-c3ccc(O)cc3)c(C#N)c(=O)[nH]2)cc1 [Compound 44]	33.62	39.28	
COc1ccc(-c2cc(-c3ccc(O)c(OC)c3)c(C#N)c(=O)[nH]2)cc1 [Compound 45]	80.34	−2.843	
COc1ccc(-c2cc(-c3ccc(OC)c(O)c3)c(C#N)c(=O)[nH]2)cc1 [Compound 46]	17.94	13.16	
COc1ccc(-c2cc(-c3ccc(-c4ccccc4)cc3)[nH]c(=O)c2C#N)cc1O [Compound 53]	17.656	30.26	
N#Cc1c(-c2ccc(O)c(O)c2)cc(-c2ccc(N3CCCCC3)cc2)[nH]c1=O [Compound 56]	81.52	11.84	
Cn1ccc(-c2cc(-c3cccc(O)c3)c(C#N)c(=O)[nH]2)c1 [Compound 57]	94.4121	75.91	
Cc1cc(-c2cc(-c3cccc(O)c3)c(C#N)c(=O)[nH]2)c(C)s1 [Compound 58]	85.76	39.79	
N#Cc1c(-c2cccc(O)c2)cc(-c2cc(F)c(F)c(F)c2)[nH]c1=O [Compound 59]	88.75	32.37	
COc1nc(-c2ccccc2)cc(-c2ccccc2)c1C#N [Compound 61]	96.92	39.64	
COc1ccc(-c2cc(-c3ccccc3)nc(Br)c2C#N)cc1 [Compound 62]	96.31	38.63	
N#Cc1c(-c2ccccc2)cc(-c2ccccc2)nc1N1CCCCC1 [Compound 63]	95.46	40.44	
COc1ccc(-c2cc(-c3ccccc3)c(C#N)c(S)n2)cc1 [Compound 64]	17.08	16.53	
COc1ccc(-c2cc(-c3ccccc3)c(C#N)c(SC)n2)cc1 [Compound 65]	95.33	20.54	
COc1ccc(-c2cc(-c3ccc(O)cc3)c(C#N)c(SC)n2)c(OC)c1 [Compound 66]	87.86	21.21	
